One block for each molecule: values may come before it. Activity calls are given as the source filed them. No cut-off for these calls is given here.
Experiments:
M21 [1] = test: Antiproliferative activity against human M21 cells assessed as growth inhibition incubated for 48 hrs by sulforhodamine B assay; format: functional, cell-based; settings: M21, 48 h
M21 [2] = test: Induction DNA DSBs in human M21 cells assessed as increase in gamma H2AX foci at 15 uM incubated for 24 hrs by DAPI staining based immunocytochemistry; format: cell-based
M21 [3] = test: Cell cycle arrest in human M21 cells assessed as accumulation at subG1 phase at 5.9 uM after 24 hrs by DAPI staining-based flow cytometry (reference value: 1.5%); format: functional
HT-29 = test: Antiproliferative activity against human HT-29 cells assessed as growth inhibition incubated for 48 hrs by sulforhodamine B assay; format: functional, cell-based; settings: HT-29, 48 h
M21 [4] = test: Cell cycle arrest in human M21 cells assessed as accumulation at S phase at 5.9 uM after 24 hrs by DAPI staining-based flow cytometry (reference value: 17.4%); format: functional
[5] = Antiproliferative activity against human HT1080 cells assessed as growth inhibition incubated for 48 hrs by sulforhodamine B assay; format: functional, cell-based, HT-1080; settings: Homo sapiens, HT-1080, 48 h; read-out: IC50
M21 [6] = test: Cell cycle arrest in human M21 cells assessed as accumulation at G0/G1 phase at 5.9 uM after 24 hrs by DAPI staining-based flow cytometry (reference value: 65.1%); format: functional
MCF7 = test: Antiproliferative activity against human MCF7 cells assessed as growth inhibition incubated for 48 hrs by sulforhodamine B assay; format: functional, cell-based; settings: MCF7, 48 h
M21 [7] = test: Cell cycle arrest in human M21 cells assessed as accumulation at G2/M phase at 5.9 uM after 24 hrs by DAPI staining-based flow cytometry (reference value: 16%); format: functional
M21 [8] = test: Cell cycle arrest in human M21 cells assessed as accumulation at G2/M phase at 5.4 uM after 24 hrs by DAPI staining-based flow cytometry (reference value: 16%); format: functional
M21 [9] = test: Induction DNA DSBs in human M21 cells assessed as increase in gamma H2AX foci at 5.4 uM incubated for 24 hrs by DAPI staining based immunocytochemistry; format: cell-based
M21 [10] = test: Cell cycle arrest in human M21 cells assessed as accumulation at G0/G1 phase at 5.4 uM after 24 hrs by DAPI staining-based flow cytometry (reference value: 65.1%); format: functional
M21 [11] = test: Cell cycle arrest in human M21 cells assessed as accumulation at subG1 phase at 5.4 uM after 24 hrs by DAPI staining-based flow cytometry (reference value: 1.5%); format: functional
M21 [12] = test: Cell cycle arrest in human M21 cells assessed as accumulation at S phase at 5.4 uM after 24 hrs by DAPI staining-based flow cytometry (reference value: 17.4%); format: functional
M21 [13] = test: Cell cycle arrest in human M21 cells assessed as accumulation at subG1 phase at 2.6 uM after 24 hrs by DAPI staining-based flow cytometry (reference value: 1.5%); format: functional
M21 [14] = test: Cell cycle arrest in human M21 cells assessed as accumulation at S phase at 2.6 uM after 24 hrs by DAPI staining-based flow cytometry (reference value: 17.4%); format: functional
M21 [15] = test: Cell cycle arrest in human M21 cells assessed as accumulation at G2/M phase at 2.6 uM after 24 hrs by DAPI staining-based flow cytometry (reference value: 16%); format: functional
M21 [16] = test: Cell cycle arrest in human M21 cells assessed as accumulation at G0/G1 phase at 2.6 uM after 24 hrs by DAPI staining-based flow cytometry (reference value: 65.1%); format: functional
M21 [17] = test: Cell cycle arrest in human M21 cells assessed as accumulation at G2/M phase at 4.1 uM after 24 hrs by DAPI staining-based flow cytometry (reference value: 16%); format: functional
M21 [18] = test: Cell cycle arrest in human M21 cells assessed as accumulation at S phase at 4.1 uM after 24 hrs by DAPI staining-based flow cytometry (reference value: 17.4%); format: functional
M21 [19] = test: Cell cycle arrest in human M21 cells assessed as accumulation at subG1 phase at 4.1 uM after 24 hrs by DAPI staining-based flow cytometry (reference value: 1.5%); format: functional
M21 [20] = test: Cell cycle arrest in human M21 cells assessed as accumulation at G0/G1 phase at 4.1 uM after 24 hrs by DAPI staining-based flow cytometry (reference value: 65.1%); format: functional
M21 [21] = test: Induction DNA DSBs in human M21 cells assessed as increase in gamma H2AX foci at 4.1 uM incubated for 24 hrs by DAPI staining based immunocytochemistry; format: cell-based
M21 [22] = test: Cell cycle arrest in human M21 cells assessed as accumulation at S phase at 13 uM after 24 hrs by DAPI staining-based flow cytometry (reference value: 17.4%); format: functional
M21 [23] = test: Cell cycle arrest in human M21 cells assessed as accumulation at subG1 phase at 13 uM after 24 hrs by DAPI staining-based flow cytometry (reference value: 1.5%); format: functional
M21 [24] = test: Cell cycle arrest in human M21 cells assessed as accumulation at G0/G1 phase at 13 uM after 24 hrs by DAPI staining-based flow cytometry (reference value: 65.1%); format: functional
M21 [25] = test: Cell cycle arrest in human M21 cells assessed as accumulation at G2/M phase at 13 uM after 24 hrs by DAPI staining-based flow cytometry (reference value: 16%); format: functional
M21 [26] = test: Cell cycle arrest in human M21 cells assessed as accumulation at subG1 phase at 3.3 uM after 24 hrs by DAPI staining-based flow cytometry (reference value: 1.5%); format: functional
M21 [27] = test: Induction DNA DSBs in human M21 cells assessed as increase in gamma H2AX foci at 3.3 uM incubated for 24 hrs by DAPI staining based immunocytochemistry; format: functional, cell-based
M21 [28] = test: Cell cycle arrest in human M21 cells assessed as accumulation at S phase at 3.3 uM after 24 hrs by DAPI staining-based flow cytometry (reference value: 17.4%); format: functional
M21 [29] = test: Cell cycle arrest in human M21 cells assessed as accumulation at G2/M phase at 3.3 uM after 24 hrs by DAPI staining-based flow cytometry (reference value: 16%); format: functional
M21 [30] = test: Cell cycle arrest in human M21 cells assessed as accumulation at G0/G1 phase at 3.3 uM after 24 hrs by DAPI staining-based flow cytometry (reference value: 65.1%); format: functional
M21 [31] = test: Cell cycle arrest in human M21 cells assessed as accumulation at subG1 phase at 10 uM after 24 hrs by DAPI staining-based flow cytometry (reference value: 1.5%); format: functional
M21 [32] = test: Cell cycle arrest in human M21 cells assessed as accumulation at S phase at 10 uM after 24 hrs by DAPI staining-based flow cytometry (reference value: 17.4%); format: functional
M21 [33] = test: Induction DNA DSBs in human M21 cells assessed as increase in gamma H2AX foci at 10 uM incubated for 24 hrs by DAPI staining based immunocytochemistry; format: cell-based
M21 [34] = test: Cell cycle arrest in human M21 cells assessed as accumulation at G2/M phase at 10 uM after 24 hrs by DAPI staining-based flow cytometry (reference value: 16%); format: functional
M21 [35] = test: Cell cycle arrest in human M21 cells assessed as accumulation at G0/G1 phase at 10 uM after 24 hrs by DAPI staining-based flow cytometry (reference value: 65.1%); format: functional
M21 [36] = test: Cell cycle arrest in human M21 cells assessed as accumulation at G2/M phase at 8.1 uM after 24 hrs by DAPI staining-based flow cytometry (reference value: 16%); format: functional
M21 [37] = test: Induction DNA DSBs in human M21 cells assessed as increase in gamma H2AX foci at 20 uM incubated for 24 hrs by DAPI staining based immunocytochemistry; format: cell-based
M21 [38] = test: Cell cycle arrest in human M21 cells assessed as accumulation at S phase at 8.1 uM after 24 hrs by DAPI staining-based flow cytometry (reference value: 17.4%); format: functional
M21 [39] = test: Cell cycle arrest in human M21 cells assessed as accumulation at subG1 phase at 8.1 uM after 24 hrs by DAPI staining-based flow cytometry (reference value: 1.5%); format: functional
M21 [40] = test: Cell cycle arrest in human M21 cells assessed as accumulation at G0/G1 phase at 8.1 uM after 24 hrs by DAPI staining-based flow cytometry (reference value: 65.1%); format: functional
M21 [41] = test: Cell cycle arrest in human M21 cells assessed as accumulation at G0/G1 phase at 3.9 uM after 24 hrs by DAPI staining-based flow cytometry (reference value: 65.1%); format: functional
M21 [42] = test: Induction DNA DSBs in human M21 cells assessed as increase in gamma H2AX foci at 3.9 uM incubated for 24 hrs by DAPI staining based immunocytochemistry; format: cell-based
M21 [43] = test: Cell cycle arrest in human M21 cells assessed as accumulation at subG1 phase at 3.9 uM after 24 hrs by DAPI staining-based flow cytometry (reference value: 1.5%); format: functional
M21 [44] = test: Cell cycle arrest in human M21 cells assessed as accumulation at G2/M phase at 3.9 uM after 24 hrs by DAPI staining-based flow cytometry (reference value: 16%); format: functional
M21 [45] = test: Cell cycle arrest in human M21 cells assessed as accumulation at S phase at 3.9 uM after 24 hrs by DAPI staining-based flow cytometry (reference value: 17.4%); format: functional

SMILES: O=C(NCCCl)Nc1ccc(S(=O)(=O)Oc2ccccc2[N+](=O)[O-])cc1
- IC50 (M21 [1]): 3900 nM
- Activity (M21 [2]): Active
- Activity (M21 [3]): 1.4%
- IC50 (HT-29): 5700 nM
- Activity (M21 [4]): 43%
- IC50 [5]: 2400 nM
- Activity (M21 [6]): 32.5%
- IC50 (MCF7): 7400 nM
- Activity (M21 [7]): 23.1%

SMILES: Cc1ccccc1OS(=O)(=O)c1ccc(NC(=O)NCCCl)cc1
- IC50 (M21 [1]): 4500 nM
- Activity (M21 [8]): 19.5%
- Activity (M21 [9]): Active
- Activity (M21 [10]): 39.2%
- IC50 (HT-29): 4900 nM
- IC50 [5]: 1600 nM
- Activity (M21 [11]): 2.3%
- IC50 (MCF7): 6100 nM
- Activity (M21 [12]): 39%

SMILES: Cc1ccc(OS(=O)(=O)c2ccc(NC(=O)NCCCl)cc2)c(C)c1
- IC50 (M21 [1]): 2100 nM
- Activity (M21 [17]): 23.8%
- Activity (M21 [18]): 46.4%
- Activity (M21 [19]): 1.4%
- IC50 (HT-29): 3600 nM
- IC50 [5]: 1300 nM
- Activity (M21 [20]): 28.4%
- IC50 (MCF7): 3900 nM
- Activity (M21 [21]): Active

SMILES: O=C(NCCCl)Nc1ccc(S(=O)(=O)Oc2ccccc2Cl)cc1
- IC50 (M21 [1]): 2100 nM
- Activity (M21 [31]): 1.9%
- Activity (M21 [32]): 33.3%
- IC50 (HT-29): 3500 nM
- IC50 [5]: 1100 nM
- Activity (M21 [33]): Active
- IC50 (MCF7): 4200 nM
- Activity (M21 [34]): 21%
- Activity (M21 [35]): 43.8%

SMILES: O=C(NCCCl)Nc1ccc(S(=O)(=O)Oc2ccccc2F)cc1
- IC50 (M21 [1]): 4000 nM
- Activity (M21 [36]): 34.6%
- Activity (M21 [37]): Active
- IC50 (HT-29): 5400 nM
- IC50 [5]: 3200 nM
- Activity (M21 [38]): 37.6%
- IC50 (MCF7): 6000 nM
- Activity (M21 [39]): 2.6%
- Activity (M21 [40]): 25.2%

Now those with a lower IC50 (HT-29), led by results:

- IC50 (HT-29): 1900 nM
- IC50 (MCF7): 2100 nM
SMILES: CCCc1ccccc1OS(=O)(=O)c1ccc(NC(=O)NCCCl)cc1
- IC50 (M21 [1]): 1300 nM
- Activity (M21 [13]): 1.3%
- Activity (M21 [14]): 37%
- Activity (M21 [15]): 25.7%
- Activity (M21 [16]): 36%
- IC50 [5]: 1900 nM

- IC50 (HT-29): 2100 nM
- IC50 (MCF7): 2600 nM
SMILES: O=C(NCCCl)Nc1ccc(S(=O)(=O)Oc2cccc(Br)c2)cc1
- IC50 (M21 [1]): 2200 nM
- Activity (M21 [22]): 1.6%
- IC50 [5]: 2000 nM
- Activity (M21 [23]): 4.4%
- Activity (M21 [24]): 1.6%
- Activity (M21 [25]): 92.4%

- IC50 (HT-29): 2300 nM
- IC50 (MCF7): 3000 nM
SMILES: Cc1cc(C)c(OS(=O)(=O)c2ccc(NC(=O)NCCCl)cc2)cc1C
- IC50 (M21 [1]): 1700 nM
- Activity (M21 [26]): 1.7%
- IC50 [5]: 1000 nM
- Activity (M21 [27]): Active
- Activity (M21 [28]): 43.8%
- Activity (M21 [29]): 27%
- Activity (M21 [30]): 27.5%

- IC50 (HT-29): 2800 nM
- IC50 (MCF7): 3700 nM
SMILES: O=C(NCCCl)Nc1ccc(S(=O)(=O)Oc2cccc(Cl)c2)cc1
- IC50 (M21 [1]): 2600 nM
- Activity (M21 [22]): 7%
- IC50 [5]: 2600 nM
- Activity (M21 [23]): 5.2%
- Activity (M21 [24]): 7.2%
- Activity (M21 [25]): 80.6%

- IC50 (HT-29): 2800 nM
- IC50 (MCF7): 3700 nM
SMILES: Cc1cccc(C)c1OS(=O)(=O)c1ccc(NC(=O)NCCCl)cc1
- Activity (M21 [41]): 31%
- Activity (M21 [42]): Active
- IC50 (M21 [1]): 2000 nM
- Activity (M21 [43]): 1.6%
- Activity (M21 [44]): 20.3%
- Activity (M21 [45]): 47.1%
- IC50 [5]: 1100 nM
